Data set [1] deals with DBF mice. The settings on record: in vivo, po.
Description: The Mouse Hypercalcemia Assay
(§1) The Mouse Hypercalcemia Assay is a six day hypercalcemia test for toxicity and selectivity.
(§2) (4) Materials and Method for the Mouse Hypercalcemia Assay:
(§3) Weanling, virus-antibody-free, five to six weeks old female DBF mice (Harlan, Indianapolis, Ind.) are used for all the studies. Animals are allowed to acclimate to local vivarium conditions for 2 days. […] The animals then are divided into groups with 4-5 mice per group. Different doses of test compounds prepared in 10% Ethanol and 90% sesame oil are administered to mice orally via gavage for 6 days. 1α-25(OH)2D3 0.5 μg/kg/d was also given to one group of mice as the positive control. […] Raw data of group differences is assessed by analysis of variance (ANOVA) using Fisher's protected least significant difference (PLSD) where the significance level was P<0.05.
For data set [2], the target named is T1, VDR (Homo sapiens, UniProt P11473).
T1 construct: the receptor expression vector pGal4-VDR-LBD (10 ng); expressed in transfected cells; host or cells: Caco-2 cells
T1 sequence (P11473 127-423 limits assumed): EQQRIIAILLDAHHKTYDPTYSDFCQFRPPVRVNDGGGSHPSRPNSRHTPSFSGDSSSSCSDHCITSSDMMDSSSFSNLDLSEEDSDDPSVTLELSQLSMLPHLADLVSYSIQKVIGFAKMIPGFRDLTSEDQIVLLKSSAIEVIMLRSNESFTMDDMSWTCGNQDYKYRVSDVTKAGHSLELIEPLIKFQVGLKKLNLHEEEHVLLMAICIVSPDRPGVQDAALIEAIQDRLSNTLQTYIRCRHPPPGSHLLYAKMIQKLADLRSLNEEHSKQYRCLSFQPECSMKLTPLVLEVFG
Description: Caco-2 cell co-transfection assay (VDR CTF). The settings on record: Caco-2 cells, pGal4-VDR-LBD luciferase co-transfection; Table 1. The data set is classed as cell-based. Here is the method:
2. The Caco-2 Cell Co-Transfection Assay:
The Caco-2 cell assay is an indicator for the undesirable condition of hypercalcemia. This co-transfection assay is a surrogate assay for in vivo calcemic activity of VDR ligands. […] Preferred assay results are greater than 1000 nM.
(2) Materials and Method for The Caco-2 Cell Assay:
Caco-2 cells, grown in phenol red free, DMEM (Invitrogen, Carlsbad, Calif.) containing 10% charcoal-stripped FCS (Hyclone, Logan, Utah), were transfected with Fugene 6 reagent (Roche Diagnostics, Indianapolis, Ind.). Cells (5000/well) were plated 18 h before transfection in a 96 well plate. The Cells were transfected with Gal4-responsive reporter pFRLuc (150 ng, Stratagene, La Jolla Calif.) and the receptor expression vector pGal4-VDR-LBD (10 ng), along with Fugene 6 reagent (0.2 μl/well). The DNA-Fugene complex was formed by incubating the mixture for 30 min at room temperature. The cells were transfected in triplicate for 5 h, and treated with various concentrations of VDR ligands (form 0.01 nM to 10,000 nM concentration range) 18 h post-transfection. The luciferase activity was quantified using Steady-Glo reagent kit (Promega, Madison, Wis.) as per manufacturer's specifications.

In data set [3] the test system is rat osteocalcin promoter. The data set is described as follows: OCN (osteocalcin) promoter assay. Type of data set: cell-based. The following applies: RG-15 (ROS 17/2.8) cells, 48 hr treatment, Table 1. As to the method: 3. The OCN (Osteocalcin) Promoter Assay
The OCN Promoter Assay is an indicator and marker for osteoporosis. […] Preferred assay results are less than 50 nM.
(3) Materials and Method for the OCN Promoter Assay:
The activation of osteocalcin by VDR ligands was evaluated in a rat osteoblast-like cell line RG-15 (ROS 17/2.8) stably expressing rat osteocalcin promoter fused with luciferase reporter gene. […] Confluent RG-15 cells maintained in DMEM/F-12 medium (3:1) containing 5% FBS, 300 μg/ml G418 and at 37° C. under 5% CO2/95% air atmosphere were trypsinized (0.25% trypsin) and plated into white opaque 96-well cell culture plates (25000 cells/well). After 24 hr, cells (in DMEM/F-12 medium+2% FBS) were treated with various concentrations of compounds, dissolved in DMSO. The final DMSO concentration remained at 0.01% (v/v). After 48 hr treatment, the medium was removed, cells were lysed with 50 μl of lysis buffer (From Luciferase reporter assay system, Roche Diagnostics, Indianapolis, Ind.) and assayed for luciferase activity using the Luciferase Reporter Gene Assay kit from Boehringer Mannheim as per manufacturer's specifications.

For data set [4], the system named is KERtr cells. Description: Keratinocyte proliferation assay. The data set is classed as cell-based. The settings on record: Homo sapiens, 72 h, BrdU incorporation, Table 2, read-out: Kera. Prolif. IC50. Here is the method: 5. The Keratinocyte Proliferation Assay
This Assay is indicative for the treatment of psoriasis.
(5) The Keratinocyte Proliferation Assay:
KERtr cells (Human skin keratinocyte transformed with a retrovirus vector, obtained from ATCC) were plated in 96-well flat-bottomed plates (3000 cells/well) in 100 μl keratinocyte serum free medium supplemented with bovine pituitary extract in the absence of EGF (Life Technologies, Rockville, Md.) and incubated at 37° C. for two days. The cells were treated with various concentrations of VDR ligands (ten-fold serial dilution from 10,000 nM to 0.1 nM in triplicate), dissolved in 100 μl keratinocyte serum free medium supplemented with bovine pituitary extract in the absence of EGF and incubated at 37° C. for 72 hr. […] Potency values (IC50) values were determined as the concentration (nM) of compound that elicited a half-maximal response.
On the technique in general: Incorporation of labelled thymidine or its analogues reports DNA synthesis.

For data set [5], the system named is IL-10. Description: Human IL-10 induction assay in PBMCs. The following applies: PBMC; TPA/PHA treated human PBMCs; Table 2. The data set is classed as cell-based. The source says:
6. The IL-10 Induction Assay
This is an in vitro efficacy assay for psoriasis, abscess and adhesion. Psoriasis involves both keratinocytes and immune cells. IL-10 is a unique cytokine because it is anti-inflammatory and immunosuppressive. This assay tells us whether a VDRM is able to function as an agonist in PBMCs ([…]) or not.
(6) Materials and Method for Human IL-10 Induction Assay:
Isolation of Peripheral Blood Mononuclear Cells (PBMCs):
Stimulation of PBMC: • L. Prepare TPA in DMSO. • M. Dissolve PHA in water. • N. Plate TPA/PHA treated PBMCs in well plates. • O. Incubate.
Sample Collection and Assay: • S. Remove all the cells by centrifugation and assay the supernatant for IL-10 by immunoassay. • T. Perform IL-10 assay using anti-human IL-10 antibody coated beads, as described by the manufacturer (Linco Research Inc., St. Charles, Mo.). (8) CaT1 Assay

The target in data set [6] is T2, RXR-VDR heterodimer (Homo sapiens, UniProt P11473).
T2 construct: Add the Gal4-RXR-DEF and VP16-VDR-LBD; expressed in transfected cells; host or cells: SaOS-2 cells
T2 sequence (P11473 127-423 limits assumed): T1 sequence (P11473 127-423 limits assumed)
T2 sequence (P19793 201-462 partner limits assumed): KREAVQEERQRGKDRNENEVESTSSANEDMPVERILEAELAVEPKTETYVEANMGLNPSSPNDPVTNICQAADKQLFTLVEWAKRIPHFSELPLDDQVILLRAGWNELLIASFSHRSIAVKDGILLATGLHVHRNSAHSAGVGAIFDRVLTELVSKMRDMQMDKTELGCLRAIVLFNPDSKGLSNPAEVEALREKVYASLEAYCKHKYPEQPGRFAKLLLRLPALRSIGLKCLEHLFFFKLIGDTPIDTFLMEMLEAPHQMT
Description: RXR-VDR heterodimerization assay (SaOS-2 cells). The data set is classed as cell-based. The following applies: Gal4-RXR / VP16-VDR-LBD luciferase reporter, Table 1. Here is the method:
1. The RXR-VDR HeterodimerAssay:
This assay provides the VDR activity of a test compound.
(1) Materials and Method for RXR-VDR Heterodimerization Assay:
Luciferase Assay Reagent: • Use Steady-Glo Luciferase Reagent from Promega (Cat #E2550) Consists of: a. E2533 Assay Substrate, lyopholized product and b. E2543 Assay Buffer. • Thaw at room temperature • Store Cell Harvesting Aspirate media from culture flask, rinse cells with HBSS and aspirate. Add trypsin and incubate. When cells appear detached, resuspend cells in growth media. Transfer into a new flask with fresh growth media for passaging the cells. Plate well plates and two extra plates A. Cell Count Mix the cell suspension using pipette Use Hematocytometer to count the cells Load cell suspension onto the hemocytometer chamber Count cells. […] In sterile flask add cell suspension to plating media. Mix. Add cells/well. Place the cells in the incubator. Cells should be about 75% confluent prior to transfection. DAY 2: Transfection Step 1: DNA and Media Add plain DMEM media to tubes for mixing the DNA Add the Reporter gene pFR-LUC Add the Gal4-RXR-DEF and VP16-VDR-LBD Step 2: FuGENE and Media Prepare plain DMEM media in a ubes for mixing FuGENE Add FuGENE 6 Transfection Reagent Incubate Step 3: FuGENE, DNA and Media Complex Add FuGENE Media complex from step 2 to DNA Media complex from step 1 Incubate Step 4: FuGENE, DNA and Media Complex to-well plate Add FuGENE-DNA-Media complex from step 3 to each plate Incubate. […] Day 4: Luciferase Assay Read the plates after drug treatment Remove part of media from all the wells and leave remainder Add Steady-Glo Luciferase Reagent mixture/wells Incubate Count each well using a Luminescence counter, Top Count NXT by Packard
Set a delay between plates to reduce the background.
(In general: A reporter such as luciferase makes a cellular process visible.)

Data set [7] concerns DBF mice. The data set is described as follows: Mouse hypercalcemia assay. The following applies: oral gavage for 6 days, serum ionized calcium 6 hours after last dosing; Table 1.
Description: The Mouse Hypercalcemia Assay
as §1, §2, §3

Values joined by “and” are separate entries in the source; they are usually repeats but may differ in a detail not shown here. Equal entries are not always repeated. Where two headings read alike, the source gives them in different places. A value given as a limit tells only on which side of the number the result lay.

On to `C=C1/C(=C\C=C2/CCC[C@]3(C)[C@@H]([C@H](C)CCCC(C)(C)O)CC[C@@H]23)C[C@@H](O)C[C@@H]1O` [AA, 1α,25-dihydroxyvitamin D3], for which the “Mouse Hypercal” value in data set [1] worked out at 0.06 µg/kg/day.

For the molecule `CCC(CC)(c1ccc(OCC(O)C(C)(C)C)c(C)c1)c1cc2cc(C(=O)O)ccc2s1` (stereo not drawn) [Ex 18, 2-{1-ethyl-1-[4-(2-hydroxy-3,3-dimethyl-butoxy)-3-methyl-phenyl]-propyl}-benzo[b]thiophene-5-carboxylic acid], the EC50 in data set [2] amounted to 748 nM; in data set [3] it was 1.3 nM; in data set [3] (Rattus norvegicus, 48 h) it was 2.4 nM. Further, the half-inhibitory concentration (IC50) is 1.8 nM in data set [4] and 89 nM in data set [5].

For `CCC(CC)(c1ccc(OCC(=O)C(C)(C)C)c(C)c1)c1cc2cc(C(=O)NCC(=O)O)ccc2s1` [Ex 19, [(2-{1-[4-(3,3-Dimethyl-2-oxo-butoxy)-3-methyl-phenyl]-1-ethyl-propyl}-benzo[b]thiophene-5-carbonyl)-amino]-acetic acid], the concentration for a half-maximal effect (EC50) in data set [6] was 114 nM and 21 nM; in data set [2], 815 nM; in data set [3] (Rattus norvegicus, 48 h), 4.7 nM. In addition, the 50% inhibitory concentration (IC50) turned out to be 16 nM in data set [4] and 149 nM in data set [5]. In data set [7], the “Mouse Hypercal” value is over 300 µg/kg/day.

In the case of `CCC(CC)(c1ccc(OCC(O)C(C)(C)C)c(C)c1)c1cc2cc(C(=O)NCC(=O)O)ccc2s1` (stereo not drawn) [Ex 20, [(2-{1-Ethyl-1-[4-(2-hydroxy-3,3-dimethyl-butoxy)-3-methyl-phenyl]-propyl}-benzo[b]thiophene-5-carbonyl)-amino]-acetic acid], the EC50 was 24 nM in data set [6]; 314 nM in data set [2]; 5 nM in data set [3] (Rattus norvegicus, 48 h). The half-inhibitory concentration (IC50) was 98 nM in data set [4] and 386 nM in data set [5].

Turning to `CCC(CC)(c1ccc(OCC(=O)C(C)(C)C)c(C)c1)c1ccc2cc(C(=O)O)sc2c1` [Ex. 1, 6-{1-[4-(3,3-dimethyl-2-oxo-butoxy)-3-methyl-phenyl]-1-ethyl-propyl}-benzo[b]thiophene-2-carboxylic acid], the EC50 in data set [2] amounted to 432 nM; in data set [3], 1 nM; in data set [3] (Rattus norvegicus, 48 h) it was 2 nM. Further, the half-maximal inhibitory concentration (IC50) in data set [5] worked out at 109 nM. In data set [7], the “Mouse Hypercal” value is under 300 µg/kg/day.

Consider `CCC(CC)(c1ccc(OCC(O)C(C)(C)C)c(C)c1)c1ccc2cc(C(=O)O)sc2c1` (stereo not drawn) [Ex. 2, 6-{1-ethyl-1-[4-(2-hydroxy-3,3-dimethyl-butoxy)-3-methyl-phenyl]-propyl}-benzo[b]thiophene-2-carboxylic acid], for which the concentration for a half-maximal effect (EC50) in data set [6] came out at 30 nM; in data set [2], 411 nM; in data set [3] (Rattus norvegicus, 48 h), 1 nM. Moreover, the 50% inhibitory concentration (IC50) in data set [4] is 1 nM; in data set [5], 24 nM.

Consider `CCC(CC)(c1ccc(OCC(=O)C(C)(C)C)c(C)c1)c1ccc2cc(C(=O)N(C)C)sc2c1` [Ex. 3, 6-{1-[4-(3,3-Dimethyl-2-oxo-butoxy)-3-methyl-phenyl]-1-ethyl-propyl}-benzo[b]thiophene-2-carboxylic acid dimethylamide], for which the concentration for a half-maximal effect (EC50) in data set [6] is 442 nM and 67 nM; in data set [2], 869 nM. The figures for the IC50 in data set [4] and in data set [5] were over 1000 nM and 351 nM, respectively.

Turning to `CCC(CC)(c1ccc(OCC(=O)C(C)(C)C)c(C)c1)c1ccc2cc(C(=O)NCC(=O)O)sc2c1` [Ex. 5, [(6-{1-[4-(3,3-dimethyl-2-oxo-butoxy)-3-methyl-phenyl]-1-ethyl-propyl}-benzo[b]thiophene-2-carbonyl)-amino]-acetic acid], the EC50 was determined as 342 nM in data set [2] and 1 nM in data set [3] (Rattus norvegicus, 48 h). Moreover, the half-inhibitory concentration (IC50) in data set [4] is 4 nM; in data set [5], 6 nM. Also, in data set [7], the “Mouse Hypercal” value was over 300 µg/kg/day.

On to `CCC(CC)(c1ccc(OCC(=O)C(C)(C)C)c(C)c1)c1cc2ccc(C(=O)NCC(=O)O)cc2s1` [Ex. 11, [(2-{1-[4-(3,3-dimethyl-2-oxo-butoxy)-3-methyl-phenyl]-1-ethyl-propyl}-benzo[b]thiophene-6-carbonyl)-amino]-acetic acid], for which the EC50 in data set [6] is 45 nM; in data set [2] it was 299 nM; in data set [3] (Rattus norvegicus, 48 h), 0.2 nM. For the same molecule, the 50% inhibitory concentration (IC50) in data set [4] amounted to 2 nM; in data set [5], 10 nM. The “Mouse Hypercal” value in data set [7] was over 300 µg/kg/day.

One may read the EC50 as the midpoint of the concentration-response curve. The IC50 is the concentration that inhibits the measured activity by half.

Source of the values: patent US7897789B2, “Vitamin D receptor modulators” (Eli Lilly and Company, priority 2003, dated 2011).
